# Measured values from publication PMC7796460, “Relation of Metal-Binding Property and Selective Toxicity of 8-Hydroxyquinoline Derived Mannich Bases Targeting Multidrug Resistant Cancer Cells” (Cancers, 2021).
# Where two headings read alike, the source gives them in different places.
# Experiments:
# MES-SA cells [1] = assay: MTT viability assay, MES-SA; assay type: cell-based, human; conditions: Homo sapiens, MES-SA; Table 2, value outside brackets; read-out: MES-SA (toxicity, Table 2)
# Source text: (§1) MDCK II canine kidney cells, A431 epidermoid carcinoma cells, the human uterine sarcoma cell lines MES-SA and the doxorubicin selected MES-SA-Dx5 were obtained from ATCC (MDCK II: No. CRL-2936™, A431: No. CRL-1555™, MES-SA: No. CRL-1976™, MES-SA/Dx5: No. CRL-1977™). ABCB1 was expressed in A431 and MES-SA cells using lentiviral transduction. The human cervix carcinoma cell line KB-3-1 and the vinblastine selected KB-v1were kind gifts from Dr. Michael M. Gottesman, National Institutes of Health. The phenotype of the resistant cells was verified using cytotoxicity assays. MDCK-B1 and MDCK-MM were established by the Sleeping Beauty transposon-based gene delivery system. OVCAR-8 and NCI-ADRres cells (obtained from the Division of Cancer Treatment and Diagnosis (DCTD) Tumor Repository (National Cancer Institute, Frederick, MD, USA)) were cultivated in RPMI-1640 (Sigma Aldrich, Budapest, Hungary), and other cell lines were cultivated in Dulbecco’s Modified Eagle Medium (DMEM, Sigma Aldrich, Budapest, Hungary), supplemented with 10% fetal bovine serum, 5 mM glutamine, and 50 unit/mL penicillin and streptomycin (Life Technologies, Carlsbad, CA, USA). All cell lines were cultivated at 37 °C, 5% CO2.
# (§2) MTT viability assays were performed as described earlier with minor modifications. Briefly, cells were seeded into 96-well tissue culture plates (Sarstedt, Newton, NC, USA/Orange, Braine-l’Alleud, Belgium) at a density of 5000 cells/well and allowed to attach overnight. Test compounds were added to achieve the required final concentration in a final volume of 100 µL per well. After an incubation period of 72 h, the supernatant was removed and fresh medium containing the MTT reagent (0.083 mg/mL) was added. Incubation with MTT at 37 °C was terminated after 1 h by removing the supernatant and lysing the cells with 100 µL DMSO per well. Viability of the cells was measured spectrophotometrically based on the absorbance values at 540 nm using either a Perkin Elmer Victor X3 or an EnSpire microplate reader. Data were background corrected by subtraction of the signal obtained from unstained cell lysates and normalized to untreated cells. Curves were fitted by Prism software (GraphPad Software Inc., San Diego, CA, USA) using the sigmoidal dose-response model (comparing variable and fixed slopes). […] Significance was calculated using unpaired t-tests; results are given as *: p ≤ 0.05, **: p ≤ 0.01, ***: p ≤ 0.001, ****: p ≤ 0.0001.
# MES-SA/Dx5 cells [2] = assay: MTT viability assay, MES-SA/Dx5; assay type: cell-based, human
# Source text: as §1, §2
# [3] = pKa by UV-visible spectrophotometric titrations; assay type: physicochemical; conditions: 0.2 M KCl (ionic strength), T = 25 °C, I = 0.2 M (KCl)
# MES-SA cells [4] = assay: ROS determination with DCFDA, MES-SA; assay type: cell-based, human; conditions: 2 h
# Protocol: (§3) Measurements were performed as described earlier. Briefly, cells were harvested, washed with PBS, and incubated with 10 µM DCFDA in a water bath shaker at 37 °C for 30 min in a density of 3 × 10^6 cells/mL. After washing with PBS, cells were seeded to 96-well plates in PBS in a density of 2 × 10^4 cells/well. Following the measurement of the basal fluorescence, test compounds were added in different concentrations and the fluorescence of the samples was followed at time intervals of 10 min. DCFDA solution in buffer was used as a cell free control to test for interaction of the test compounds with DCFDA. Data were analyzed as fold change of fluorescence compared to basal levels and untreated cells. Significance was calculated using unpaired t-tests; results are given as *: p ≤ 0.05, **: p ≤ 0.01, ***: p ≤ 0.001, ****: p ≤ 0.0001.
# (§4) Table S3: Characterization of intracellular ROS production with the DCFDA assay for P -gp negative MES-SA and P-gp positive MES-SA/Dx5 cells. Fold changes in fluorescence are shown after a 2 h with the investigated 8 -hydroxyquinoline ligands. Data S-refer to Figure 7 and allow […]
# (§5) concentration range from 6.25µ M to 50µ M. Fold change of fluorescence obtained in the presence of 5 mM NAC is given in brackets.
# MES-SA/Dx5 cells [5] = assay: ROS determination with DCFDA, MES-SA/Dx5; assay type: cell-based, human; conditions: 2 h
# Protocol: as §3, §4, §5
compound,measurement,setting,value
Oc1c(CN2CCOCC2)cc(Cl)c2cccnc12 [Compound 5-Cl-Q-2],IC50,MES-SA cells [1],1400 ± 240 nM
same,IC50,"MES-SA/Dx5 cells [2]; Homo sapiens, MES-SA/Dx5, Table 2, value outside brackets, read-out: MES-SA/Dx5 (toxicity, Table 2)",640 ± 30 nM
same,SR MES-SA/Dx5 (Table 2),"MES-SA/Dx5 cells [2]; Table 2, value in brackets (Tariquidar as in Table 1)",1.39
same,SR MES-SA/Dx5 (Table 2),"MES-SA/Dx5 cells [2]; Table 2, value outside brackets",2.19
same,pKa,"[3]; group named in the cell (NmorpholiniumH+, NpiperidiniumH+, NbenzylamineH2+), read-out: pKa (additional)",5.83 ± 0.02
same,pKa,[3]; read-out: pKa (NquinoliniumH+),< 2
same,pKa,[3]; read-out: pKa (OH),9.68 ± 0.03
same,Fold change in fluorescence (DCFDA),MES-SA cells [4]; 6.25 µM,1.896± 0.32
same,Fold change in fluorescence (DCFDA),"MES-SA cells [4]; 6.25 µM, presence of 5 mM NAC (brackets)",1.600± 0.55
same,Fold change in fluorescence (DCFDA),MES-SA cells [4]; 12.5 µM,2.226± 0.39
same,Fold change in fluorescence (DCFDA),"MES-SA cells [4]; 12.5 µM, presence of 5 mM NAC (brackets)",1.263± 0.62
same,Fold change in fluorescence (DCFDA),MES-SA cells [4]; 25 µM,2.086± 0.66
same,Fold change in fluorescence (DCFDA),"MES-SA cells [4]; 25 µM, presence of 5 mM NAC (brackets)",1.309± 0.51
same,Fold change in fluorescence (DCFDA),MES-SA cells [4]; 50 µM,2.609± 0.77
same,Fold change in fluorescence (DCFDA),"MES-SA cells [4]; 50 µM, presence of 5 mM NAC (brackets)",1.178± 0.40
same,Fold change in fluorescence (DCFDA),"MES-SA/Dx5 cells [5]; MES-SA/Dx5, 6.25 µM",2.594± 0.87
same,Fold change in fluorescence (DCFDA),"MES-SA/Dx5 cells [5]; MES-SA/Dx5, 6.25 µM, presence of 5 mM NAC (brackets)",1.246± 0.47
same,Fold change in fluorescence (DCFDA),"MES-SA/Dx5 cells [5]; MES-SA/Dx5, 12.5 µM",3.214± 0.86
same,Fold change in fluorescence (DCFDA),"MES-SA/Dx5 cells [5]; MES-SA/Dx5, 12.5 µM, presence of 5 mM NAC (brackets)",1.651± 0.73
same,Fold change in fluorescence (DCFDA),"MES-SA/Dx5 cells [5]; MES-SA/Dx5, 25 µM, presence of 5 mM NAC (brackets)",1.265± 0.27
same,Fold change in fluorescence (DCFDA),"MES-SA/Dx5 cells [5]; MES-SA/Dx5, 50 µM",4.697± 3.24
same,Fold change in fluorescence (DCFDA),"MES-SA/Dx5 cells [5]; MES-SA/Dx5, 50 µM, presence of 5 mM NAC (brackets)",1.462± 0.39
